According to patent US20260078103A1, “ISOQUINOLONES AS PI3K INHIBITORS” (OnKure, Inc., priority 2022, published 2026):
Where two headings read alike, the source gives them in different places.

Tests used:
Format in all cases: cell-based
[1] = test system: SKBR3 cells express WT PI3Ka; test: In vitro cell proliferation, SKBR3 cells (CellTiter-Glo); details: inhibition of proliferation
Method in brief: (§1)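 T47D (PI3Kα H1047R; RPMI, 10% FBS, insulin 0.2 units/mL) or SKBR3 (WT PI3Kα; McCoys 5a, 10% FBS) cells seeded at 1,500 cells/well on 10-point compound dilutions, grown 72 h at 37 °C. CellTiter-Glo luminescence; inhibition normalised to 0.1% DMSO and 10 uM alpelisib, EC50 from four-parameter fit.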

[2] = test system: T47D cells expressing mutant PI3Ka (H1047R); test: In vitro cell proliferation, T47D cells (CellTiter-Glo); details: inhibition of proliferation, read-out: Avg T-47D EC50
Method in brief: as §1

[3] = test system: phosphorylation of AKT (pAKT) in SKBR3 cells express WT PI3Ka; test: In vitro cell pAKT (Ser473) HTRF, SKBR3 cells; details: cellular pAKT
Method in brief: (§2)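 T47D cells (RPMI, 10% FBS, 0.2 units/mL insulin) or SKBR3 cells (McCoy's 5a, 10% FBS) were seeded onto 10-point compound dilutions and incubated 6 h at 37 °C. After lysis, pAKT was detected overnight by HTRF (Eu cryptate/d2). IC50 was fitted from % inhibition relative to 0.1% DMSO and 10 uM alpelisib controls.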

[4] = test system: phosphorylation of AKT (pAKT) in T47D cells expressing mutant PI3Ka (H1047R); test: In vitro cell pAKT (Ser473) HTRF, T47D cells; details: cellular pAKT, T47D cells, mutant PI3Ka (H1047R), 6 hours, read-out: Avg T-47D IC50
Method in brief: as §2

Row | Compound | EC50 ([1]; Homo sapiens, SK-BR-3, 72 h) [µM] | EC50 ([2]; Homo sapiens, T47D, 72 h) [µM] | IC50 ([3]; Homo sapiens, SK-BR-3, 6 h) [µM] | IC50 ([4]; Homo sapiens, T47D, 6 h) [µM] | EC50 ([1]; 72 hours) [µM] | EC50 ([2]; 72 hours) [µM] | IC50 ([3]; 6 hours) [µM] | IC50 [4] [µM]
1 | Cc1cc([C@@H](C)Nc2ccccc2C(=O)O)c2cc(OCc3ccccn3)n(C)c(=O)c2c1 [Example 335] | > 15 | 0.5 to 2 | > 15 | 0.001 to 0.5 |  |  |  | 
2 | Cc1cc(C(C)Nc2cccc(C#N)c2C(=O)O)c2cc(N3CCN(CC(F)(F)F)CC3)n(C)c(=O)c2c1 (stereo not shown) [Example 354] |  |  |  |  | > 15 | 2 to 15 | > 15 | 2 to 15
3 | Cc1cc(C(C)Nc2ccccc2C(=O)O)c2cc(N3C[C@@H]4CN(CC(F)(F)F)C[C@H]4C3)n(C)c(=O)c2c1 (single isomer, unassigned) [Example 109] |  |  |  |  | 2 to 15 | 0.001 to 0.5 | > 15 | 0.001 to 0.5
4 | Cc1cc([C@@H](C)Nc2ccc(Cl)nc2C(=O)O)c2cc(N3CCN(C4COC4)CC3)n(C)c(=O)c2c1 [Example 148] | > 15 | 0.5 to 2 | > 15 | 0.5 to 2 |  |  |  | 
5 | Cc1cc([C@@H](C)Nc2ccccc2C(=O)O)c2cc(N3C[C@H]4CN(CC(F)(F)F)C[C@H]4C3)n(C)c(=O)c2c1 [Example 73] | > 15 | 0.5 to 2 | > 15 | 0.001 to 0.5 |  |  |  | 
6 | Cc1ccc(N2CCN(c3cc4c([C@@H](C)Nc5ccccc5C(=O)O)cc(F)cc4c(=O)n3C)CC2(C)C)cn1 [Example 502] | 2 to 15 | 0.001 to 0.5 | 0.5 to 2 | 0.001 to 0.5 |  |  |  | 
7 | Cc1cc(C(C)Nc2ccccc2C(=O)O)c2cc(N3Cc4cccnc4C3)n(C)c(=O)c2c1 (single isomer, unassigned) [Example 19, 2-((1-(3-(5,7-dihydro-6H-pyrrolo[3,4-b]pyridin-6-yl)-2,7-dimethyl-1-oxo-1,2-dihydroisoquinolin-5-yl)ethyl)amino)benzoic acid] |  |  |  |  | 2 to 15 | 0.001 to 0.5 | > 15 | 0.001 to 0.5
8 | Cc1cc(C(C)Nc2ccccc2C(=O)O)c2cc(N3CC4(CC(C(F)(F)F)C4)C3)n(C)c(=O)c2c1 (stereo not shown) [Example 57] | > 15 | 2 to 15 | > 15 | 0.001 to 0.5 |  |  |  | 
9 | COC1(C)CCN(c2cc3c(C(C)Nc4ccccc4C(=O)O)cc(C)cc3c(=O)n2C)CC1 (single isomer, unassigned) [Example 153] |  |  |  |  | 2 to 15 | 0.001 to 0.5 | 2 to 15 | 0.001 to 0.5
10 | Cc1cc([C@@H](C)Nc2ccccc2C(=O)O)c2cc(-c3ccc(C)nc3C)n(C)c(=O)c2c1 [Example 209] | > 15 | 0.5 to 2 | > 15 | 0.001 to 0.5 |  |  |  | 
11 | Cc1cc([C@@H](C)Nc2ccccc2C(=O)O)c2cc(N3CC4CC3CN4CC(F)(F)F)n(C)c(=O)c2c1 (single isomer, unassigned) [Example 224] |  |  |  |  | > 15 | 0.001 to 0.5 | > 15 | 0.001 to 0.5
12 | C[C@@H](Nc1ccccc1C(=O)O)c1cc(F)cc2c(=O)n(C)c(-c3cnc(-c4cc(F)c(F)cc4F)c(F)c3)cc12 [Example 548] |  |  |  |  | 2 to 15 | 0.001 to 0.5 | > 15 | 0.001 to 0.5
13 | Cc1cc([C@@H](C)Nc2ccccc2C(=O)O)c2cc(-c3cnc(C4CC4)cn3)n(C)c(=O)c2c1 [Example 517] | > 15 | 0.001 to 0.5 | > 15 | 0.001 to 0.5 |  |  |  | 
14 | CC(Nc1ccccc1C(=O)O)c1cc(F)cc2c(=O)n(C)c(-c3ccc(OCC(F)F)nc3)cc12 (stereo not shown) [Example 462] |  |  |  |  | > 15 | 0.001 to 0.5 | > 15 | 0.001 to 0.5
15 | C[C@@H](Nc1ccccc1C(=O)O)c1cc(F)cc2c(=O)n(C)c(-c3ccc(OC4CC4)nc3)cc12 [Example 497] | > 15 | 0.001 to 0.5 | > 15 | 0.001 to 0.5 |  |  |  | 
16 | Cc1cc(C(C)Nc2ccccc2C(=O)O)c2cc(N3CCN4C(=O)OC[C@H]4C3)n(C)c(=O)c2c1 (single isomer, unassigned) [Example 141] | > 15 |  | > 15 |  |  | > 15 |  | > 15
17 | Cc1cc([C@@H](C)Nc2cccc(F)c2C(=O)O)c2cc(N3CCN(C)[C@@H](C(F)(F)F)C3)n(C)c(=O)c2c1 [Example 410] | > 15 | 0.001 to 0.5 | > 15 | 0.001 to 0.5 |  |  |  | 
18 | Cc1cc([C@@H](C)Nc2ccccc2C(=O)O)c2cc(N3CCN(c4cnn(C)c4)CC3)n(C)c(=O)c2c1 [Example 220] | > 15 | 0.001 to 0.5 | 2 to 15 | 0.001 to 0.5 |  |  |  | 
19 | Cc1cc([C@@H](C)Nc2ccccc2C(=O)O)c2cc(-c3cnc(C4CC4)s3)n(C)c(=O)c2c1 [Example 239] | > 15 | 0.001 to 0.5 | > 15 | 0.001 to 0.5 |  |  |  | 

Row | Compound | EC50 ([1]; Homo sapiens, SK-BR-3, 72 h) [µM] | EC50 ([2]; Homo sapiens, T47D, 72 h) [µM] | IC50 ([3]; Homo sapiens, SK-BR-3, 6 h) [µM] | IC50 ([4]; Homo sapiens, T47D, 6 h) [µM] | EC50 ([1]; 72 hours) [µM] | EC50 ([2]; 72 hours) [µM] | IC50 ([3]; 6 hours) [µM] | IC50 [4] [µM]
20 | Cc1cc([C@@H](C)Nc2ccccc2C(=O)O)c2c(F)c(C3CC3)n(C)c(=O)c2c1 [Example 529] | > 15 | 0.001 to 0.5 | > 15 | 0.001 to 0.5 |  |  |  | 
21 | Cc1cc([C@@H](C)Nc2ccccc2C(=O)O)c2cc(-c3ccc(O[C@H]4C[C@@H](F)C4)nc3)n(C)c(=O)c2c1 [Example 202] |  |  |  |  | > 15 | 0.001 to 0.5 | > 15 | 0.001 to 0.5
22 | Cc1cc([C@@H](C)Nc2ccccc2C(=O)O)c2cc(N3CCN(C(C)C(F)(F)F)CC3)n(C)c(=O)c2c1 (single isomer, unassigned) [Example 279] |  |  |  |  | > 15 | 0.001 to 0.5 | > 15 | 0.001 to 0.5
23 | Cc1cc([C@@H](C)Nc2ccccc2C(=O)O)c2cc(-c3cc(F)c4c(cnn4C)c3)n(C)c(=O)c2c1 [Example 366] | 2 to 15 | 0.001 to 0.5 | 2 to 15 | 0.001 to 0.5 |  |  |  | 
24 | Cc1cc(C(C)Nc2ccccc2C(=O)O)c2cc(-c3ccc(C)nc3)n(C)c(=O)c2c1 (stereo not shown) [Example 68] | > 15 | 0.5 to 2 | > 15 | 0.001 to 0.5 |  |  |  | 
25 | Cc1cc([C@@H](C)Nc2ccccc2C(=O)O)c2cc(Cl)n(C)c(=O)c2c1 [Example 400] | > 15 | 0.5 to 2 | > 15 | 0.5 to 2 |  |  |  | 
26 | C#Cc1ccc(N[C@H](C)c2cc(F)cc3c(=O)n(C)c(-c4ccc(OCC(F)(F)F)nc4)cc23)c(C(=O)O)n1 [Example 542] |  |  |  |  | 2 to 15 | 0.001 to 0.5 | 2 to 15 | 0.001 to 0.5
27 | Cc1cc(C(C)Nc2ccccc2C(=O)O)c2cc(N3CC4(CC(C(F)(F)F)C4)C3)n(C)c(=O)c2c1 (single isomer, unassigned) [Example 82] | > 15 |  | > 15 |  |  | 0.5 to 2 |  | 0.001 to 0.5
28 | C[C@@H](Nc1cccc(F)c1C(=O)O)c1cc(F)cc2c(=O)n(C)c(N3CC[C@@H](C(F)(F)F)C3)cc12 [Example 415] | > 15 | 0.5 to 2 | > 15 | 0.001 to 0.5 |  |  |  | 
29 | Cc1cc(C(C)Nc2ccccc2C(=O)O)c2cc(N3Cc4ccc(F)cc4C3)n(C)c(=O)c2c1 (single isomer, unassigned) [Example 49] | > 15 |  | > 15 | 0.001 to 0.5 |  | 0.001 to 0.5 |  | 
30 | Cc1cc([C@@H](C)Nc2ccc(F)c(F)c2C(=O)O)c2cc(N3CCN(CC(F)(F)F)CC3)n(C)c(=O)c2c1 [Example 272] |  |  |  |  | 2 to 15 | 0.001 to 0.5 | 2 to 15 | 0.001 to 0.5
31 | Cc1cc([C@@H](C)Nc2ccccc2C(=O)O)c2cc(N3CCN(CC(F)F)CC3)n(C)c(=O)c2c1 [Example 162] |  |  |  |  | > 15 | 0.001 to 0.5 | 2 to 15 | 0.001 to 0.5
32 | Cc1cc(C(C)Nc2ccccc2C(=O)O)c2cc(N3C4CCCC3CC4)n(C)c(=O)c2c1 (stereo not shown) [Example 69] | > 15 | 0.5 to 2 | > 15 | 0.001 to 0.5 |  |  |  | 
33 | C[C@@H](Nc1ccccc1C(=O)O)c1cc(F)cc2c(=O)n(C)c(-c3cnc(C(F)F)s3)cc12 [Example 539] | > 15 | 0.001 to 0.5 | > 15 | 0.001 to 0.5 |  |  |  | 
34 | Cc1cc(C(C)Nc2ccccc2C(=O)O)c2cc(C#Cc3cccc(Cl)c3)n(C)c(=O)c2c1 (single isomer, unassigned) [Example 144] |  |  |  |  | > 15 | > 15 | > 15 | 0.5 to 2
35 | Cc1nc(N2CCN(c3cc4c([C@@H](C)Nc5cccc(F)c5C(=O)O)cc(F)cc4c(=O)n3C)CC2)cs1 [Example 490] | 2 to 15 | 0.001 to 0.5 | 2 to 15 | 0.001 to 0.5 |  |  |  | 
36 | Cc1ncc(F)cc1-c1ncc(-c2cc3c([C@@H](C)Nc4cccc(F)c4C(=O)O)cc(F)cc3c(=O)n2C)cc1F [Example 440] | > 15 | 0.001 to 0.5 | 2 to 15 | 0.001 to 0.5 |  |  |  | 
37 | Cc1cc([C@@H](C)Nc2ccccc2C(=O)O)c2cc(N3CCN(Cc4cnn(C)c4)CC3)n(C)c(=O)c2c1 [Example 200] | > 15 | 0.5 to 2 | > 15 | 0.5 to 2 |  |  |  | 
